Patent US20160151366A1, “Compositions and Methods for Treating Autism Spectrum Disorders” (Vanderbilt University, priority 2014, published 2016)
“Also recorded” adds a separate entry of the source.

Tests used:
SERT Ala56 mice [1] = experiment: Tube Test for Social Dominance; type: in vivo; conditions: for SERT Ala56 mediated social deficits in the Tube Test: SERT Ala56 mice; for Effect of treatment on its own in the Tube Test: wildtype mice, chronic treatment 1 week
From the text: FIG. 9. […] SERT Ala56 mice display social deficits in the Tube Test compared to their SERT Gly56 littermates.
FIG. 10. […] SERT Ala56 mice display social deficits in the Tube Test compared to their SERT Gly56 littermates.
FIG. 11. […] Chi Square analysis with Yate's Correction. n.s.=not significant, *p<0.05, ***p<0.001
FIG. 12. […] Chi Square analysis with Yate's Correction. n.s.=not significant, *p<0.05, ***p<0.001
Chi Square analysis with Yate's Correction. n.s.=not significant, *p<0.05, ***p<0.001
As described herein, SERT Ala56 mice have deficits in social behaviors in the Tube Test for Social Dominance. Studies were also conducted to determine the effect of specific p38 MAPK inhibitors on social deficits in the animal of ASD. Mice were treated with either saline or a specific p38 MAPK inhibitor for one week.
SERT Ala56 mice display social deficits in the Tube Test compared to their SERT Gly56 littermates.

SERT Ala56 mice [2] = experiment: DOI-induced head twitch (5-HT2A receptor hypersensitivity); type: in vivo; conditions: for CNS 5-HT2A receptor hypersensitivity (DOI-induced head-twitch response): adult SERT Ala56 mice, chronic administration, dose not stated; for SERT Ala56-mediated increases in DOI-induced head twitches: QD×1 wk
From the text: Two-Way ANOVA, followed by post-hoc Bonferroni's multiple comparison tests. *p<0.05, **p<0.01
FIG. 20A-B. […] Two-Way ANOVA, followed by post-hoc Bonferroni's multiple comparison tests. **p<0.01, ***p<0.001

SERT Ala56 mice [3] = experiment: 8-OH-DPAT-induced hypothermia (5-HT1A receptor hypersensitivity); type: in vivo
From the text: Similarly, both drugs normalize 5-HT1A receptor hypersensitivity seen in adult SERT Ala56 mice as monitored by 8-OHDPAT induced hypothermia responses. […] […].

[4] = system: SERT Ala56 mice and WT littermates; experiment: Biogenic monoamine levels within the CNS by HPLC; type: in vivo; conditions: i.p., QD×1 wk
From the text: FIG. 17A-C. […] Respective brain sections were flash frozen and monoamine levels determined by HPLC. […] 5-Hydoxytryptamine (5-HT), Dopamine (DA), Norepinephrine (NE)
FIG. 19A-C. […] Respective brain sections were flash frozen and monoamine levels determined by HPLC. […] 5-Hydoxytryptamine (5-HT), Dopamine (DA), Norepinephrine (NE)
Respective brain sections were flash frozen and monoamine levels determined by HPLC.

[5] = system: SERT Ala56 mice and WT counterparts; experiment: Midbrain expression of SERT after chronic treatment; type: in vivo; conditions: 10 mg/kg, QD, i.p.×1 wk; SERT Ala56 mice or WT counterparts
IL-1β = conditions: in vivo treatment; cited from earlier work
[6] = chronic treatment for 1 week, dose not stated
[7] = chronic 10 mg/kg, i.p., DOI 1.0 mg/kg

SMILES | SERT Ala56 mediated social deficits in the Tube Test (SERT Ala56 mice [1]; 10 mg/kg, i.p., QD×1 wk) | SERT Ala56 mediated social deficits in the Tube Test (SERT Ala56 mice [1]; [6]) | Effect of treatment on its own in the Tube Test (SERT Ala56 mice [1]) | CNS 5-HT2A receptor hypersensitivity (DOI-induced head-twitch response) (SERT Ala56 mice [2]) | SERT Ala56-mediated increases in DOI-induced head twitches (SERT Ala56 mice [2]; [7]) | SERT Ala56-mediated potentiation of 8-OH-DPAT-induced hypothermia (SERT Ala56 mice [3]; i.p., QD×1 wk, dose not stated) | Biogenic monoamine levels (5-HT, DA, NE) in midbrain, hippocampal or frontal cortex samples ([4]; 10 mg/kg) | Midbrain expression of SERT [5] | LPS-induced increases in IL-1β within the CNS (IL-1β) | SERT Ala56 mediated social deficits in the Tube Test (SERT Ala56 mice [1]; 5 mg/kg, i.p., QD×1 wk) | SERT Ala56-mediated increases in DOI-induced head twitch (SERT Ala56 mice [2]; acute, single treatment 5 mg/kg, i.p., DOI 1.0 mg/kg) | SERT Ala56-mediated increases in DOI-induced head twitches (SERT Ala56 mice [2]; chronic 5 mg/kg, i.p., DOI 1.0 mg/kg) | SERT Ala56-mediated potentiation of 8-OH-DPAT-induced hypothermia (SERT Ala56 mice [3]; 5 mg/kg, i.p. QD×1 wk) | SERT Ala56-mediated potentiation of 8-OH-DPAT-induced hypothermia (SERT Ala56 mice [3]; 10 mg/kg, i.p. QD×1 wk) | Biogenic monoamine levels (5-HT, DA, NE) in midbrain, hippocampal or frontal cortex samples ([4]; 5 mg/kg)
CN(C)c1cc(-c2ccncc2)c(-c2ccc3ccccc3c2)nn1 [MW108] | dose-dependently attenuate | reverses these social deficits; also recorded: reverse social behavior deficits | no effect on its own; also recorded: Neither dose of MW108 was found to exert any effects on its own; also recorded: Neither dose of MW108 or MW150 was found to exert any effects on their own | normalize CNS 5-HT2A receptor hypersensitivity | dose-dependently attenuates | reduced this effect, albeit insignificantly | No differences between genotype or treatment group were found | No changes in SERT expression | attenuate lipopolysaccharide (LPS)-induced increases in IL-1β |  |  |  |  |  | 
CN1CCN(c2cc(-c3ccncc3)c(-c3ccc4ccccc4c3)nn2)CC1 [MW150] | attenuates SERT Ala56-mediated social deficits | reverses these social deficits; also recorded: reverse social behavior deficits | no effects on its own; also recorded: Neither dose of MW150 was found to exert any effects on its own; also recorded: Neither dose of MW108 or MW150 was found to exert any effects on their own | normalize CNS 5-HT2A receptor hypersensitivity | mitigates |  |  |  |  | attenuates SERT Ala56-mediated social deficits; also recorded: reverses these social deficits | not capable of reversing; also recorded: failed to mitigate | mitigates | attenuates | attenuates | No differences between genotype or treatment group were found
